The IC50 is the concentration needed to halve the response being measured. Usually melting point stands for the temperature, or range, at which the solid turns liquid.

One data set relates to HT-29. As to the kind of experiment: Growth assay (Cell Titer Glo). The data set is classed as cell-based, human. Particulars: Homo sapiens, HT-29, 72 h, HT-29 colon. The protocol:
(§1) Compounds 2a-h were tested for tumor cell growth inhibitory activity using the human breast MDA-MB-231 and ZR75-1 tumor cell lines and the colon CACO-2, SW-1116, and HT-29 tumor cell lines.
(§2) All human tumor cell lines were obtained from ATCC and grown under standard cell culture conditions at 37° C. in a humidified atmosphere with 5% CO2. Cells were grown in RPMI 1640 supplemented with 5% fetal bovine serum 2 mM glutamine, 100 units/ml penicillin, 100 units/ml streptomycin, and 0.25 μg/ml amphotericin. Cells were harvested at 70 to 90% confluence with trypsin/EDTA and used immediately Cell count and viability was determined by Trypan blue staining followed by hemocytometry. Only cultures displaying >95% cell viability were used for experiments. HMEC were grown according to the specifications from the supplier (Lonzo).
(§3) Tissue culture microtiter 96-well plates were seeded with cells at a density of 5,000 cells/well. The plates were incubated for 18-24 hours prior to any treatment. All test compounds were solubilized in 100% DMSO and diluted with media to obtain a final DMSO concentration of 0.1%. Cell viability was measured 72 hours after treatment by the Cell Titer Glo Assay (Promega), which is a luminescent assay that is an indicator of live cells as a function of metabolic activity and ATP content. The assay was performed according to manufacturer's specifications. Luminescence was measured by a Perkin Elmer Victor® multi-label plate reader.^6
(§4) Dose response curves were analyzed using Prism™ 4 software (GraphPad) to calculate IC50 values using a four parameter logistic equation.

Data set [1] relates to human MDA-MB-231 breast tumor cells. As to the kind of experiment: Growth assay (Cell Titer Glo). It is filed as cell-based. Particulars: Homo sapiens, MDA-MB-231, 72 h, MDA-MB-231 breast; 72 h; Tables 3-5; read-out: IC50 value, μM, growth. The protocol: as §2, §3, §4
Another data set relates to CACO-2. As to the kind of experiment: Growth assay (Cell Titer Glo). The data set is classed as cell-based. The following applies: Homo sapiens; CACO-2 colon; 72 h. The protocol:
as §1, §2, §3, §4
(In general: In ATP-based viability assays light output follows the ATP content of the culture.)

Another data set concerns ZR75-1. As to the kind of experiment: Growth assay (Cell Titer Glo). It is filed as cell-based. The following applies: Homo sapiens, ZR-75-1; ZR75-1 breast; 72 h. The procedure:
as §1, §2, §3, §4

For another data set, the system named is SW1116. As to the kind of experiment: Growth assay (Cell Titer Glo). It is filed as cell-based. The following applies: Homo sapiens, SW 1116; SW1116 colon; 72 h. The protocol:
as §1, §2, §3, §4

Take `COC(=O)[C@H]1Cc2c([nH]c3ccccc23)[C@@H](c2ccccc2Br)N1C(=O)CCl` [Compound 2a, Methyl (1R,3R)-1-(2-bromophenyl)-2-(2-chloroacetyl)-2,3,4,9-tetrahydro-1H-β-carboline-3-carboxylate]: the IC50 came to 1.9 µM in the data set with HT-29; 0.06 µM in data set [1]; 0.79 µM with CACO-2; 3.52 µM in the data set with ZR75-1; 2.79 µM in the data set on SW1116.

For `COC(=O)[C@H]1Cc2c([nH]c3ccccc23)[C@H](c2ccccc2Br)N1C(=O)CCl` [Compound 2b, Methyl (1S,3R)-1-(2-bromophenyl)-2-(2-chloroacetyl)-2,3,4,9-tetrahydro-1H-β-carboline-3-carboxylate], the IC50 with HT-29 is 1.16 µM; in data set [1] it was 0.02 µM; in the data set with CACO-2, 1.6 µM; in the data set with ZR75-1 it was 1.1 µM; in the data set on SW1116, 4.3 µM.

With `COC(=O)[C@@H]1Cc2c([nH]c3ccccc23)[C@H](c2ccccc2Br)N1C(=O)CCl` [Compound 2c, Methyl (1S,3S)-1-(2-bromophenyl)-2-(2-chloroacetyl)-2,3,4,9-tetrahydro-1H-β-carboline-3-carboxylate], the 50% inhibitory concentration (IC50) was 0.77 µM in the data set with HT-29; 0.02 µM in data set [1]; 0.1 µM with CACO-2; 1.1 µM in the data set with ZR75-1; 2.72 µM in the data set on SW1116.

On to `COC(=O)[C@@H]1Cc2c([nH]c3ccccc23)[C@@H](c2ccccc2Br)N1C(=O)CCl` [Compound 2d, Methyl (1R,3S)-1-(2-bromophenyl)-2-(2-chloroacetyl)-2,3,4,9-tetrahydro-1H-β-carboline-3-carboxylate], for which the half-inhibitory concentration (IC50) in the data set on HT-29 worked out at 3.2 µM; in data set [1] it was 0.25 µM; with CACO-2, 0.55 µM; in the data set with ZR75-1 it was 3.61 µM; in the data set with SW1116 it was 1.05 µM.

Turning to `COC(=O)[C@H]1Cc2c([nH]c3ccccc23)[C@@H](c2cc(OC)ccc2OC)N1C(=O)CCl` [Compound 2e, Methyl (1R,3R)-1-(2,5-dimethoxyphenyl)-2-(2-chloroacetyl)-2,3,4,9-tetrahydro-1H-β-carboline-3-carboxylate], the melting point lay within 108 to 111 °C. Besides, the concentration for half-maximal inhibition (IC50) in the data set with HT-29 worked out at 3.38 µM. Further, the IC50 in data set [1] worked out at 4.25 µM. In addition, inhibition with CACO-2 was half-maximal at 3.5 µM (IC50). In the data set with ZR75-1, this compound had an IC50 of 5.7 µM. Also, the half-inhibitory concentration (IC50) with SW1116 amounted to 7.2 µM.

`COC(=O)[C@@H]1Cc2c([nH]c3ccccc23)[C@H](c2cc(OC)ccc2OC)N1C(=O)CCl` [Compound 2g, Methyl (1S,3S)-1-(2,5-dimethoxyphenyl)-2-(2-chloroacetyl)-2,3,4,9-tetrahydro-1H-β-carboline-3-carboxylate] returned a melting point of 105 to 108 °C. In the data set with HT-29, this compound had a 50% inhibitory concentration (IC50) of 6.12 µM. Moreover, the half-maximal inhibitory concentration (IC50) in data set [1] was determined as 1.6 µM. In addition, in the data set on CACO-2, the IC50 worked out at 3.04 µM. In the data set with ZR75-1, this compound had a half-inhibitory concentration (IC50) of 4.13 µM. Moreover, the concentration for half-maximal inhibition (IC50) in the data set with SW1116 was 3.71 µM.

Take `COC(=O)C1Cc2c([nH]c3ccccc23)C(c2cc(OC)ccc2OC)N1C(=O)CCl` [Compound 2h, Methyl (1R,3S)-1-(2,5-dimethoxyphenyl)-2-(2-chloroacetyl)-2,3,4,9-tetrahydro-4H-β-carboline-3-carboxylate]: the melting point was in the range of 228 to 230 °C. This compound also returned a concentration for half-maximal inhibition (IC50) in the data set with HT-29 of 5.59 µM. Further, the 50% inhibitory concentration (IC50) in data set [1] came out at 0.04 µM. In the data set with CACO-2, this compound displayed a half-maximal inhibitory concentration (IC50) of 0.29 µM. In the data set with ZR75-1, this compound registered an IC50 of 3.95 µM. The same compound displayed a half-inhibitory concentration (IC50) in the data set on SW1116 greater than 10 µM.

The record behind these values is US9169247B2, “Tetrahydro-beta-carboline derivatives, synthesis and use thereof” (Southern Research Institute, priority 2009, dated 2015).
